Data as given in US9353090B2, “Heterocyclic carboxylic acids as activators of soluble guanylate cyclase” (Boehringer Ingelheim International GmbH, priority 2014, dated 2016).
pEC50: −log10 of the molar value. ≈ marks a conversion by molar mass, not a printed value.

How the values were obtained:
physchem = details: kinetic from dmso stock
[1] = target: human soluble guanylate cyclase alpha 1 and beta 1 subunits (sGC) (Homo sapiens (Human), UniProt Q02108+Q02153); test: sGC cellular activator assay (cGMP, HTRF), in the presence and absence of 50% human serum; type: cell-based; details: CHO cells stably expressing human sGC alpha 1/beta 1, preincubated with 40 microM ODQ; cGMP by HTRF; Table 2 does not state whether with or without 50% human serum
Chain of human soluble guanylate cyclase alpha 1 and beta 1 subunits (sGC) (Q02108 whole entry partner): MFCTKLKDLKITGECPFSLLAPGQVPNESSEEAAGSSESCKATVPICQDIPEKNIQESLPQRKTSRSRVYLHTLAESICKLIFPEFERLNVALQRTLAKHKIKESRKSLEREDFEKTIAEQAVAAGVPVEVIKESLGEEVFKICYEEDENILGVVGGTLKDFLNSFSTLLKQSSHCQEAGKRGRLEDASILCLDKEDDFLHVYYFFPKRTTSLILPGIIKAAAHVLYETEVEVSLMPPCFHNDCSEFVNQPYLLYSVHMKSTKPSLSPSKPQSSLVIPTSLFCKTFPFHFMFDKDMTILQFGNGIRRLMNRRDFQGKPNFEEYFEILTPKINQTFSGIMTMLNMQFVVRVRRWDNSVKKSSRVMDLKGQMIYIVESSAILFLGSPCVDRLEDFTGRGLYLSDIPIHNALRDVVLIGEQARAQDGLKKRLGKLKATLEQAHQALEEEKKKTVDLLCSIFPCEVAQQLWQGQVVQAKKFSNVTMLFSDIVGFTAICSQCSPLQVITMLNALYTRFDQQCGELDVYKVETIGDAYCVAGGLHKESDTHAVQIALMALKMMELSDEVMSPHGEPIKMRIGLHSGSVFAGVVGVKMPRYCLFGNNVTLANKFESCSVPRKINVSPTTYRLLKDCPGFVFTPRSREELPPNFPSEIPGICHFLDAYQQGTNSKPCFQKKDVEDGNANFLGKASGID
Chain of human soluble guanylate cyclase alpha 1 and beta 1 subunits (sGC) (Q02153 whole entry): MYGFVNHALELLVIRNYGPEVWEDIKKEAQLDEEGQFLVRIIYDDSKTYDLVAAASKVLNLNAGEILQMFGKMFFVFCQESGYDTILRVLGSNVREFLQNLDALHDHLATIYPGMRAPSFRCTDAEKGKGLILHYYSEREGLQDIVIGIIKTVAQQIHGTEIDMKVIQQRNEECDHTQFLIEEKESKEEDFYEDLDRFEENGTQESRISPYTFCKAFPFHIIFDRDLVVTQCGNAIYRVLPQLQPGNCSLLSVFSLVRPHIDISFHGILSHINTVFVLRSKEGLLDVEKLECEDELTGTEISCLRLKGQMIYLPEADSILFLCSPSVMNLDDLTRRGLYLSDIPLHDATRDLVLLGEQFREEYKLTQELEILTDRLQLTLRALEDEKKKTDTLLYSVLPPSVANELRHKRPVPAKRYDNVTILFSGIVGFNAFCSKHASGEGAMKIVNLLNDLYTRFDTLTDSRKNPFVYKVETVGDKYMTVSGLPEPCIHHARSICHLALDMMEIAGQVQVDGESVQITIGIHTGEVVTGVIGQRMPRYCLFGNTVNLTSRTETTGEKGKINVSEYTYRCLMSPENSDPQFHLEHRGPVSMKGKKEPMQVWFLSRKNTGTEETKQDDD
In short: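 First, CHO-sGC (human α1β1) cells get 1 h ODQ at 40 microM with IBMX and 0.1% BSA. Finally, cGMP is quantified by HTRF and EC50 computed.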

[2] = Human liver microsome (HLM) metabolic stability assay; type: in vitro ADME; details: human liver microsomes
In short: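 Remaining parent measured by LC/MS/MS (ESI, MRM) at 5, 15, 30 and 60 min relative to 0 min. Incubation: 1 uM compound, HLMs, NADPH-started, 37° C., 60 min total, single replicate. Slope of ln(% remaining) gives t1/2 = 0.693/slope, then CLint, CLh and % Qh.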

[3] = pH 2.2, aqueous buffer, Solubility (pH 2.2)
[4] = pH 4.5, aqueous buffer, Solubility (pH 4.5)
[5] = pH 6.8, aqueous buffer, Solubility (pH 6.8)

Structure (SMILES)	solubility at 24 h (physchem; [3]) [µg/mL]	solubility at 24 h (physchem; [4]) [µg/mL]	solubility at 24 h (physchem; [5]) [µg/mL]	pEC50 [1]	Metabolic stability (Qh %), % hepatic blood flow [2] [%]
CCO[C@@H]1CN(c2nc(-c3cccc(C)c3OCc3cc(F)c4c(c3)CCN(C3CCOCC3)C4)cs2)CC[C@@H]1C(=O)O [Compound 238]	112 (≈ 183 µM)	109 (≈ 179 µM)	109 (≈ 178 µM)	8.40	<24
CCO[C@@H]1CN(c2cccc(-c3cccc(C)c3OCc3ccc4c(c3C)CCN(C3CCOCC3)CC4)n2)CC[C@@H]1C(=O)O [Compound 239]	126 (≈ 205 µM)	123 (≈ 200 µM)	117 (≈ 191 µM)	8.30	87
CCO[C@@H]1CN(c2cccc(-c3cc(C)ccc3OCc3ccc4c(c3C)CCN(C3CCOCC3)CC4)n2)CC[C@@H]1C(=O)O [Compound 240]	123 (≈ 200 µM)	118 (≈ 193 µM)	117 (≈ 190 µM)	8.30	73
CCO[C@@H]1CN(c2nc(-c3cccc(C)c3OCc3cc(C)c4c(c3F)CCN(C3CCOCC3)C4)cs2)CC[C@@H]1C(=O)O [Compound 241]	129 (≈ 207 µM)	98.5 (≈ 158 µM)	92.2 (≈ 148 µM)	8.70	42.5
CO[C@H]1CN(c2nc(-c3cccc(C)c3OCc3cc(C)c4c(c3F)CCN(C3CCOCC3)C4)cs2)CC[C@H]1C(=O)O [Compound 242]	126 (≈ 206 µM)	116 (≈ 191 µM)	115 (≈ 189 µM)	8.40	<24
COC[C@H]1N(c2cccc(-c3cccc(C)c3OCc3cc(F)c4c(c3)CCN(C3CCOCC3)CC4)n2)C[C@@H]2C[C@@]21C(=O)O [Compound 243]	131 (≈ 212 µM)	124 (≈ 201 µM)	107 (≈ 174 µM)	8.52	<24
CO[C@@H]1CN(c2nc(-c3cccc(C)c3OCc3cc(F)c4c(c3)CCN(C3CCOCC3)CC4)cs2)CC[C@@H]1C(=O)O [Compound 244]	118 (≈ 193 µM)	109 (≈ 178 µM)	107 (≈ 176 µM)	8.40	<24
CCO[C@H]1CN(c2nccc(-c3cccc(C)c3OCc3cc4c(c(OC)c3)CN(C3CCOCC3)CC4)n2)CC[C@H]1C(=O)O [Compound 246]	117 (≈ 190 µM)	114 (≈ 184 µM)	85.4 (≈ 138 µM)	7.82	<24
CCO[C@@H]1CN(c2nccc(-c3cccc(C)c3OCc3cc4c(c(OC)c3)CN(C3CCOCC3)CC4)n2)CC[C@@H]1C(=O)O [Compound 248]	91.2 (≈ 148 µM)	88.9 (≈ 144 µM)	88.1 (≈ 143 µM)	6.24	<24
COc1cc(COc2c(C)cccc2-c2cccc(N3CC[C@H](C(=O)O)[C@H](OC)C3)n2)cc2c1CN(C1CCOCC1)CC2 [Compound 249]	129 (≈ 214 µM)	127 (≈ 211 µM)	120 (≈ 199 µM)	7.89	<24
CO[C@H]1CN(c2cccc(-c3cccc(Cl)c3OCc3cc(C)c4c(c3)CCN(C3CCOCC3)C4)n2)CC[C@H]1C(=O)O [Compound 250]	147 (≈ 243 µM)	82.2 (≈ 136 µM)	51.9 (≈ 85.6 µM)	8.15	33
COc1cc(COc2c(Cl)cccc2-c2cccc(N3CC[C@@H](C(=O)O)[C@@H](OC)C3)n2)cc2c1CN(C1CCOCC1)CC2 [Compound 251]	155 (≈ 249 µM)	90.7 (≈ 146 µM)	66.6 (≈ 107 µM)	8.22	36
COc1cc(COc2c(C)cccc2-c2csc(N3CC[C@@H](C(=O)O)[C@@H](OC)C3)n2)c(F)c2c1CN(C1CCOCC1)CC2 [Compound 252]	133 (≈ 212 µM)	81.7 (≈ 131 µM)	72.9 (≈ 116 µM)	8.70	<24
CO[C@H]1CN(c2nc(-c3cc(C)ccc3OCc3cc(C)c4c(c3F)CCN(C3CCOCC3)C4)cs2)CC[C@H]1C(=O)O [Compound 253]	127 (≈ 208 µM)	7.7 (≈ 12.6 µM)	1.1 (≈ 1.8 µM)	8.05	<24
COc1cc(COc2ccc(C)cc2-c2csc(N3CC[C@@H](C(=O)O)[C@@H](OC)C3)n2)cc2c1CN(C1CCOCC1)CC2 [Compound 254]	118 (≈ 194 µM)	67.5 (≈ 111 µM)	2.9 (≈ 4.77 µM)	7.85	26
